# A melting point compilation (Tetko et al.; mined from patent text by program, amines drawn as free bases though some values may be those of a salt)
row,SMILES,melting point [°C]
1,Cc1nc2c(C#N)ncn2c(Cl)c1-c1c(F)cc(F)cc1F,183
2,CCOC(=O)c1ncn2c1C1C=CCN1C(=O)c1c(F)cccc1-2 (configuration not stated),200 to 201
3,CC1CN(c2ccc(C(=O)C(F)(F)F)cc2)N=C1NC(=O)C(F)(F)F (configuration not stated),203 to 204
4,CN(C)C(=O)C(=O)c1c(Cl)n(C)c2ccc(Cl)cc12,205 to 206
5,N#Cc1nn(-c2c(Cl)cc(C(F)(F)F)cc2Cl)cc1C1C=CCC1 (configuration not stated),76 to 80
6,CC(=O)NC[C@H]1CN(c2ccc(N3CCC(n4ncn(C)c4=S)CC3)c(F)c2)C(=O)O1,182 to 185
7,O=C1N(CC2CCCO2)c2c(Cl)cccc2C12COc1cc3c(cc12)CCO3 (configuration not stated),192 to 193
8,Cn1cc(C#N)c(=O)c(-c2cccc(C(F)(F)F)c2)c1,228 to 229
9,CC1(C)CCC(C)(C)c2cc(C#Cc3ccc(C#N)cc3)ccc21,157
10,Cc1nc2c(C)cccn2c(=O)c1CCN1CCC(c2noc3cc(F)ccc23)CC1,200
11,CC1(C)CCC(C#N)(Cc2ccc(Cl)cc2)C1=O (configuration not stated),101 to 103
12,CC(=O)OCC1OC(n2c(Br)c(C=O)c3cc(Cl)c(Cl)cc32)C(O)C1O (configuration not stated),159 to 160
13,O=C1Nc2cc(CN3CC=C(c4ccc(Cl)cc4)CC3)cnc2N2CCCCC12 (configuration not stated),202
14,CSC1NC(=O)N(C)C(=O)N1N=C(C)C (configuration not stated),130 to 132
15,Nc1ccc(Cl)c(Cl)c1CO,134 to 135
16,CCC(=O)Nc1ccc(-c2ccc(C(=O)N3CCN4CCC3CC4)o2)cc1,264
17,Cc1cc(=O)c2c(o1)CCOC2,107 to 110
18,CCCCCCc1ccc(CCc2cc3c(s2)NC(=S)CN=C3c2ccccc2Cl)cc1,140 to 145
19,COC(=O)c1cc(C(C)(C)C)c(OC(=O)c2cc(C(C)(C)C)c(O)c(C(C)(C)C)c2)c(C(C)(C)C)c1,206 to 209
20,Cc1ccc(OCCCCCCCCCCC(Cl)(Cl)C(=O)O)cc1,67 to 68
21,C[Si]1(C)CC[Si](C)(C)N1c1ccc(Br)cn1,50.4 to 55.8
22,C=CC1(N)CN=C(c2ccc(Cl)c(N(C)C)c2F)N=C1C(=O)OC (configuration not stated),136 to 137

row,SMILES,melting point [°C]
1,COc1cc2c(cc1OCCCN1CCC(c3[nH]cc4cc(F)ccc34)CC1)CCCC2=O,129 to 131
2,Cc1ccc(S(=O)(=O)NC(=S)NC23CC4CC(CC(C4)C2)C3)cc1,170 to 173
3,NC(=O)c1ccc(F)c2c1CC(N(CCCc1c[nH]c3ccc(Cl)cc13)C1CCC1)CO2 (configuration not stated),152 to 160
4,NS(=O)(=O)c1cccc(NC(=O)NC2N=C(c3ccccc3F)c3ccccc3N(CC(=O)N3CC4CCC(CC4)C3)C2=O)c1 (racemic),221 to 226
5,CCC(C(=O)C(C)C(O)C(C)CCCC(=O)c1c(NC(C)=O)cc(C)c(O)c1C(=O)O)C1OC(CC)(C2CCC(O)(CC)C(C)O2)CC1C (configuration not stated),190 to 192
6,Cc1nnc(-c2cccs2)c(=O)n1N,210
7,Nc1nc(SC2CCC2)c2ncn(C3C=CC(CO)C3)c2n1 (configuration not stated),159 to 160
8,COc1ccc2[nH]c3c(c2c1)CC(N(C)C)CC3 (configuration not stated),126 to 128
9,CCC(CC)(CC)C(=O)O[C@H]1CCC=C2C=C[C@H](C)[C@H](CC[C@@H]3C[C@@H](O)CC(=O)O3)[C@H]21,65 to 68
10,CSc1ccc(C(=O)Nc2c(Cl)cncc2Cl)cc1OC1CCCC1,157 to 159
11,COC(=O)c1ccc2c(c1C)SCCC2(C)C,63
12,CCCn1c(=O)c2[nH]c(/C=C/c3ccccc3Cl)nc2n(CCC)c1=O,269 to 270
13,CN1C(=S)N(c2cc(Cl)cc(Cl)c2)C(O)C1O (configuration not stated),143
14,CC(C)(C)NCC(O)COc1ccc(F)cc1-c1ccc(=S)[nH]n1 (configuration not stated),170 to 173
15,Nc1n[nH]c2ncnc(Nc3cccc(Cl)c3)c12,232 to 234
16,CCC(CO)NCC(O)COc1ccccc1C#N (configuration not stated),106 to 108
17,CCOc1ccc(Cl)c([N+](=O)[O-])c1,48 to 49.5
18,Cc1cnc(C(N)=O)cn1,204 to 206
19,Nc1cc(Br)nc(C(=O)O)c1Cl,182 to 183
20,CCCOc1ccccc1-c1nc2c(CCC)nn(C)c2c(=S)[nH]1,111 to 112
21,COc1cc(C(=O)O)c(OC)c2c1C(C)(C)CCC2(C)C,187

# Results, then the compound that gave them:
row,melting point [°C],SMILES
1,178 to 190,Cc1nc(N2N=C(c3ccc([N+](=O)[O-])cc3)c3cc4c(cc3CC2C)OCO4)cs1 (configuration not stated)
2,110 to 112,Nc1ccc(OCc2ccccc2)c(CCCc2ccc(NC(=O)Cc3cccnc3)cc2)c1
3,238 to 240,CC(C)n1c(=O)c2cc(C(=O)O)cn2c2ccccc21
4,223 to 224,COc1ccccc1-n1c(=O)[nH]c2c(C(N)=O)nc(Nc3ccc(O)cc3)nc21
5,> 250,COc1ccc(S(=O)(=O)n2c(=O)[nH]c3cc(Cl)ccc3c2=O)cc1OC
6,75,C[C@H](O)c1ccccc1S(=O)(=O)c1ccc(/C=C/c2ccc(F)cc2)cc1
7,199 to 200,COc1ccnc(CCc2nc3cc(-c4ccc(S(=O)(=O)NC5CCCCC5)cc4)cnc3[nH]2)c1
8,143 to 145,CC(CO)(Sc1cc2cc(O)ccc2[nH]1)c1ccccc1 (configuration not stated)
9,163 to 165,CNc1ccc2c(C)nc(CC3OC(COC(=O)c4ccccc4)C(O)C3O)n2n1 (configuration not stated)
10,122 to 124,COC(=O)c1ccc(Cc2cn(C)c3ccc(CCNC(=O)N(C)C)cc23)c(OC)c1
11,82 to 84,COc1ccc(C(=O)NCCc2cccc(OCc3ccccc3)c2)cc1OC
12,139 to 140,CS(=O)(=O)c1ccc(-c2c(-c3ccccc3)c(=O)c2=O)cc1
13,122 to 123,CCOC(=O)c1cc(C(=O)OC)c(CCN2C(=O)c3ccccc3C2=O)o1
14,120,COc1ccc(-n2nc(OC(C)C)cc2-c2ccc(OCCNC(N)=O)cc2)cn1
15,129 to 130,CC(=O)c1csc2ccc(OS(=O)(=O)c3ccccc3)cc12
16,124 to 127,CN(C)C1=Nc2cc(Br)ccc2N2CCc3cccc1c32
17,89 to 91,OCCC#Cc1ccc2ccccc2n1
18,110 to 113,COc1cc(Cl)c(CCNCC(O)c2ccccc2)cc1OC (configuration not stated)
19,94 to 96,COCOc1ccc(C=CC(=O)c2ccc(OCc3ccccc3)cc2OC(C)=O)c(OCc2ccccc2)c1
20,182 to 184,COCC1CN(c2ccc(C3CCC(OC(=O)c4ccccc4C4=NCCO4)CC3)cc2)C(=O)O1 (racemic)
21,108 to 110,COc1cn(-c2ccc(OS(=O)(=O)C(F)(F)F)cc2F)nc(-c2ccnn2-c2ccccc2)c1=O
22,103 to 104,COc1ccc(C(C)(C)C)cc1C=Cc1ccc(CCl)cc1
23,124 to 125,O=c1ccn(-c2ccccc2F)nc1-c1ccnn1-c1ccccc1
24,76 to 78,CC(C)=CCN1CCc2c(sc(N)c2C(=O)c2ccccc2)C1
25,288,O=C(Nc1cn2cc(Cl)ccc2n1)c1ccc(C2(C(=O)O)CCCCC2)cc1
26,114 to 115,COc1ccc(C(=O)C2=C(c3ccccc3)c3ccccc3C2)cc1
27,155 to 160,Cc1nc2ccc(C(=O)NS(=O)(=O)c3ccccc3)nc2n1Cc1ccc(C(=O)O)cc1Cl

row,melting point [°C],SMILES
1,127 to 129,CC(C)Cc1nc2ccc(OC(C)(C)C)cc2c(-c2ccccc2F)c1C#N
2,124,CC(C)(Oc1ccc(Cl)cc1)C(=O)OCc1ncc(C(=O)O)s1
3,283 to 286,CCOC(=O)c1[nH]c2cc(Cl)cc(Cl)c2c1NCC(=O)c1ccc([N+](=O)[O-])cc1
4,189 to 190,CCC1=NC(NC(=O)Nc2cccc(C)c2)C(=O)N(CC(=O)N2CCCCCCC2)c2c(C)cccc21 (configuration not stated)
5,108 to 110,Cc1cc(OCCCCOc2ccc([N+](=O)[O-])c(C)c2)ccc1[N+](=O)[O-]
6,157 to 158,CON(C)C(=O)c1sc(SC)c2c1CCc1sc(-c3ccccc3)nc1-2
7,230 to 232,C=C(F)C(F)(F)n1ncc(-c2ccc(S(N)(=O)=O)cc2)c(-c2ccc(F)cc2)c1=O
8,198 to 201,CC(C)(C)NS(=O)(=O)c1ccc(Cl)cc1C=C1CCOC1=O
9,73 to 76,COC(=O)C(=COCF)c1ccccc1CBr
10,204 to 206,CS(=O)(=O)c1ccc(-n2cc(-c3ccc4ccccc4c3)nc2-c2ccc(Cl)cc2)cc1
11,98 to 100,CCCCC1=NC(C)(C)C(=O)N1Cc1ccc(-c2ccccc2C(=O)OC(C)(C)C)cc1
12,249 to 250,CC1COCc2nc3cnc4cc(C=CS(C)(=O)=O)ccc4c3n21 (configuration not stated)
13,73,O=C(c1ccc(Cl)cc1)C(O)c1ccc(Cl)cc1 (configuration not stated)
14,138 to 142,CC(Cc1c[nH]c2ccccc12)(NC(=O)OC1C2CC3CC(C2)CC1C3)C(=O)NCC(=NOCC(=O)O)c1ccccc1 (configuration not stated)
15,118 to 120,CC1Cc2cc3c(cc2C(c2ccc(N)cc2)=NN1C(=O)Nc1ccccc1)OCO3 (configuration not stated)
16,182 to 184,CCN1C(=O)Nc2ccc(Cl)cc2C1(O)c1ccccc1 (configuration not stated)
17,74,COC(=O)C#CC(=O)c1ccc(OC)c(OC)c1OC
18,233 to 235,O=C(O)[C@@H]1Cc2ncn(Cc3ccccc3)c2CN1C(=O)c1ccccc1
19,134 to 135,CSc1nccc(-c2cc(C)ccc2NC(=O)C(C)C)n1
20,68 to 69,C=CCC1(c2ccc(Br)cc2)C2CCC(C(=O)C2)C1Nc1ccc(OC)cc1 (configuration not stated)
21,176 to 183,Oc1ccc2cc(-c3csc(-c4ccccc4)n3)ccc2c1Br
22,144,CCCCOc1cc(/C=C(\OCC)C(=O)O)ccc1OCCc1ccc(N(C)S(=O)(=O)CCCC)cc1
23,157 to 158,CC(C)c1cccc(C(C)C)c1NC(=O)C1c2ccccc2COc2ccc(CO)cc21 (configuration not stated)
24,205,COc1cc(-c2cccc(Cl)c2)c2cc(C(O)c3cncn3C)ccc2n1 (configuration not stated)
25,248 to 249,CN(C)c1cncc(-c2nc(=O)c3ccccc3s2)n1
26,155 to 157,CCCc1nc(C(C)(C)O)c(C(=O)O)n1Cc1ccc(-c2ccccc2C(=O)OC(C)(C)C)cc1
27,134 to 136,COc1c(Cl)ccc(-c2nc(C(=O)Cl)cc(Cl)c2Cl)c1F
